{"source": "patent US5264355A", "about": "“Methlating enzyme from streptomyces MA6858” (Merck & Co., Inc., priority 1992, dated 1993)", "molecules": {"B1": {"name": "31-O-desmethylFK-506 O-methyltransferase (FKMT) (Streptomyces tacrolimicus) (protein)", "chain": "MSDVVETLRLPNGATVAHVNAGEAQFLYREIFTDRCYLRHGVELRPGDVVFDVGANIGMFMLFAHLEHPGVTVHAFEPAPVPFAALRANAVRHRVAGRVDQCAVSDEAGVRRMTFYPDATLMSGFHPDAAARKELLRTLGLNGGYTAEDVDMMLAQLPDTGEEIETSVVRLSDVIAERGIAAIGLLKIDVEKSERRVLAGVEDADWPRIRQVVAEVHDVDGALGEVVALLRGHGFTVVAEQDPLFAGTEIHQVAARRTAG", "notes": "Washed mycelium was used for the preparation of the cell-free extract; endogenous in cells; host or cells: Native enzyme purified in house from mycelium of Streptomyces MA6858 (ATCC 55098), not recombinant; for the kinetics, purified through the second MonoQ column"}}, "key": {"in vitro immune systems": {"tested_on": "in vitro immune systems", "details": "J. Antibiotics 1987, 40, 1256; cited from earlier work"}, "[1]": {"biological_target": "T1, 31-O-desmethylFK-506 O-methyltransferase (FKMT) (Streptomyces tacrolimicus, UniProt P74838)", "T1 construct": "endogenous in cells; host or cells: Native enzyme purified in house from mycelium of Streptomyces MA6858 (ATCC 55098), not recombinant; for the kinetics, purified through the second MonoQ column", "T1 sequence (P74838 1-260)": "B1 chain", "test": "FKMT O-methyltransferase assay / kinetic analysis", "format": "biochemical, Streptomyces sp. MA6858", "details": "substrate A as variable, above 50 uM; fixed SAM 220 μM", "procedure": "(§1) This enzyme, is SAM dependent and has requirement for Mg^+2 with optimum concentration of 4 mM. […] The temperature effect on the methylation reaction was examined at 0°, 22°, 24°, 34°, 37°, and 44° C. The optimum temperature for the reaction was determined to be at 34° C. Above this temperature there was a problem with substrate decomposition. Under the established incubation condition in which 31 uM of substrate A and 220 uM of SAM were used, the rate of the methylation reaction was linear up to 35 min with protein concentration up to 100 ug.\n(§2) For the kinetic studies, a preparation of the FKMT enzyme which had been purified through the second MonoQ column chromatography was used. Under conditions for the initial velocity measurement, apparent Km and Vmax were determined for 31-O-desmethyFK-506 (substrate A) at one saturating concentration of SAM ([…]). […]\n(§3) The assay was carried out in 1 ml. mixture containing 0.025 mM 31-desmethylFK-506, 4 mM MgSO4 and different quantities of the enzyme source in 50 mM phosphate buffer, pH 7.5. […] The plastic sheet was developed in chloroform:methanol (9:1) and area showing standard FK-506 under UV-light was cut and the radioactivity in the cut-strip was measured and the amount of the product formed was calculated."}, "[2]": {"substrate": "C=CC[C@@H]1/C=C(\\C)C[C@H](C)C[C@H](OC)[C@H]2O[C@@](O)(C(=O)C(=O)N3CCCC[C@H]3C(=O)O[C@H](/C(C)=C/[C@@H]3CC[C@@H](O)[C@H](O)C3)[C@H](C)[C@@H](O)CC1=O)[C@H](C)C[C@@H]2OC", "test": "FKMT O-methyltransferase assay / kinetic analysis", "format": "biochemical, Streptomyces sp. MA6858", "details": "other: FKMT purified through second MonoQ column, initial velocity, pH 7.5", "procedure": "as §1, §2, §3"}}}
{"molecule": "C=CC[C@@H]1/C=C(\\C)C[C@H](C)C[C@H](OC)[C@H]2O[C@@](O)(C(=O)C(=O)N3CCCC[C@H]3C(=O)O[C@H](/C(C)=C/[C@@H]3CC[C@@H](O)[C@H](OC)C3)[C@H](C)[C@@H](O)CC1=O)[C@H](C)C[C@@H]2OC", "note": "[FR-900506, 17-allyl-1,14-dihydroxy-12-[2'-(4\"-hydroxy-3\"-methoxycyclohexyl)-1'-methylvinyl]-23,25-dimethoxy-13,19,21,27-tetramethyl-11,28-dioxa-4-azatricyclo-[22.3.1.0^4,9]-octacos-18-ene-2,3,10,16-tetraone]", "values": [{"measurement": "effectiveness relative to cyclosporin in the suppression of in vitro immune systems", "setting": "in vitro immune systems", "result": 100, "unit": "times"}]}
{"molecule": "C=CC[C@@H]1/C=C(\\C)C[C@H](C)C[C@H](OC)[C@H]2O[C@@](O)(C(=O)C(=O)N3CCCC[C@H]3C(=O)O[C@H](/C(C)=C/[C@@H]3CC[C@@H](O)[C@H](O)C3)[C@H](C)[C@@H](O)CC1=O)[C@H](C)C[C@@H]2OC", "note": "[31-O-desmethyFK-506]", "values": [{"measurement": "substrate inhibition", "setting": "[1]", "result": "no substrate inhibition"}]}
{"molecule": "B1", "values": [{"measurement": "Km", "setting": "[2]; saturating SAM (220 uM)", "result": 23.21, "unit": "µM"}, {"measurement": "Vmax", "setting": "[2]; saturating SAM (220 mM as printed)", "result": 2.33, "unit": "nmol/mg/min"}]}
